Laboratory results taken from paper PMC8957246, “Synthesis and diverse biological activity profile of triethylammonium isatin-3-hydrazones” (ADMET & DMPK, 2022).

Tests used:
Assay type in all cases: cell-based
[1] = tested on: Candida albicans ATCC 10231; experiment: Antimicrobial activity, serial dilution (MIC/MBC), Ca; details: ATCC10231
[2] = tested on: Fusarium oxysporum IBPPM 543; experiment: Fungicidal activity, radial growth inhibition, F. oxysporum; details: for EC50: Fusarium oxysporum, IBPPM543, 168 h, day 7, EC50 = 50C/I, read-out: EC50, μg/mL at day 7
Procedure, shortened: (§1)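 Compound solutions mixed into molten GPY agar (~60 °C) at various concentrations; plates centre-inoculated with a 5-mm mycelial block from 10-day cultures and incubated at 27 °C until control plates filled (~12 days). Inhibition is the % decrease in colony radial growth versus untreated control; EC50 = 50C/I.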

[3] = tested on: Phytophthora cactorum VKM F-985; experiment: Fungicidal activity, radial growth inhibition, P. cactorum; details: for EC50: Phytophthora cactorum, 168 h, day 7, EC50 = 50C/I, read-out: EC50, μg/mL at day 7
Procedure, shortened: as §1

[4] = tested on: Staphylococcus aureus ATCC 6538P FDA 209P; experiment: Antimicrobial activity, serial dilution (MIC/MBC), Sa; details: Staphylococcus aureus; for MBC: read-out: MBC (converted)
[5] = tested on: Enterococcus faecalis ATCC 29212; experiment: Antimicrobial activity, serial dilution (MIC/MBC), Ef; details: ATCC29212
[6] = tested on: Bacillus cereus ATCC 10702 NCTC 8035; experiment: Antimicrobial activity, serial dilution (MIC/MBC), Bc; details: Bacillus cereus; for MIC: read-out: MIC
[7] = C 6.30 μg/mL, age of the fungus 3 days
[8] = C 6.30 μg/mL, age of the fungus 5 days
[9] = C 6.30 μg/mL, age of the fungus 7 days
[10] = C 6.30 μg/mL, age of the fungus 9 days
[11] = C 12.60 μg/mL, age of the fungus 3 days
[12] = C 12.60 μg/mL, age of the fungus 5 days
[13] = C 12.60 μg/mL, age of the fungus 7 days
[14] = C 12.60 μg/mL, age of the fungus 9 days
[15] = C 6.47 μg/mL, age of the fungus 3 days
[16] = C 6.47 μg/mL, age of the fungus 5 days
[17] = C 6.47 μg/mL, age of the fungus 7 days
[18] = C 6.47 μg/mL, age of the fungus 9 days
[19] = C 12.94 μg/mL, age of the fungus 3 days
[20] = C 12.94 μg/mL, age of the fungus 5 days
[21] = C 12.94 μg/mL, age of the fungus 7 days
[22] = C 12.94 μg/mL, age of the fungus 9 days

For CC[N+](CC)(CC)CC(=O)N/N=C1\C(=O)N(Cc2cc(C(C)(C)C)c(O)c(C(C)(C)C)c2)c2c1ccc(C)c2C [Compound 3d, 2-(2-(1-(3,5-Di-tert-butyl-4-hydroxybenzyl)-6,7-dimethyl-2-oxoindolin-3-ylidene)hydrazinyl)-N,N,N-triethyl-2-oxoethanammonium bromide], the MBC [1] was greater than 500 µM, the MIC [1] was 198 ± 15.5 µM and the “Inhibition value, I (%)” value [2, 7] was 0%. For the same compound, the “Inhibition value, I (%)” value [2, 8] was 5%, the “Inhibition value, I (%)” value [2, 9] was 5% and the “Inhibition value, I (%)” value [2, 10] was 0%. For the same compound, the “Inhibition value, I (%)” value [2, 11] was 8%, the “Inhibition value, I (%)” value [2, 12] was 12% and the “Inhibition value, I (%)” value [2, 13] was 13%. For the same compound, the “Inhibition value, I (%)” value [2, 14] was 2%, the “Inhibition value, I (%)” value ([2]; C 25.20 μg/mL, age of the fungus 3 days) was 17% and the “Inhibition value, I (%)” value ([2]; C 25.20 μg/mL, age of the fungus 5 days) was 15%. For the same compound, the “Inhibition value, I (%)” value ([2]; C 25.20 μg/mL, age of the fungus 7 days) was 20%, the “Inhibition value, I (%)” value ([2]; C 25.20 μg/mL, age of the fungus 9 days) was 8% and the “Inhibition value, I (%)” value ([2]; C 37.80 μg/mL, age of the fungus 3 days) was 22%. The “Inhibition value, I (%)” value ([2]; C 37.80 μg/mL, age of the fungus 5 days) was 18%, the “Inhibition value, I (%)” value ([2]; C 37.80 μg/mL, age of the fungus 7 days) was 24% and the “Inhibition value, I (%)” value ([2]; C 37.80 μg/mL, age of the fungus 9 days) was 9%. The EC50 [2] was 48.5 µg/mL, the “Inhibition value, I (%)” value ([3]; C 1.26 μg/mL, age of the fungus 3 days) was 18% and the “Inhibition value, I (%)” value ([3]; C 1.26 μg/mL, age of the fungus 5 days) was 17%. The “Inhibition value, I (%)” value ([3]; C 1.26 μg/mL, age of the fungus 7 days) was 5%, the “Inhibition value, I (%)” value ([3]; C 1.26 μg/mL, age of the fungus 9 days) was 0% and the “Inhibition value, I (%)” value ([3]; C 1.26 μg/mL, age of the fungus 12 days) was 0%. For the same compound, the “Inhibition value, I (%)” value ([3]; C 3.15 μg/mL, age of the fungus 3 days) was 23%, the “Inhibition value, I (%)” value ([3]; C 3.15 μg/mL, age of the fungus 5 days) was 18% and the “Inhibition value, I (%)” value ([3]; C 3.15 μg/mL, age of the fungus 7 days) was 14%. The “Inhibition value, I (%)” value ([3]; C 3.15 μg/mL, age of the fungus 9 days) was 6%, the “Inhibition value, I (%)” value ([3]; C 3.15 μg/mL, age of the fungus 12 days) was 5% and the “Inhibition value, I (%)” value [3, 7] was 29%. The “Inhibition value, I (%)” value [3, 8] was 19%, the “Inhibition value, I (%)” value [3, 9] was 15% and the “Inhibition value, I (%)” value [3, 10] was 8%. For the same compound, the “Inhibition value, I (%)” value ([3]; C 6.30 μg/mL, age of the fungus 12 days) was 7%, the “Inhibition value, I (%)” value ([3]; C 9.45 μg/mL, age of the fungus 3 days) was 31% and the “Inhibition value, I (%)” value ([3]; C 9.45 μg/mL, age of the fungus 5 days) was 20%. For the same compound, the “Inhibition value, I (%)” value ([3]; C 9.45 μg/mL, age of the fungus 7 days) was 17%, the “Inhibition value, I (%)” value ([3]; C 9.45 μg/mL, age of the fungus 9 days) was 9% and the “Inhibition value, I (%)” value ([3]; C 9.45 μg/mL, age of the fungus 12 days) was 8%. The “Inhibition value, I (%)” value [3, 11] was 50%, the “Inhibition value, I (%)” value [3, 12] was 50% and the “Inhibition value, I (%)” value [3, 13] was 51%. For the same compound, the “Inhibition value, I (%)” value [3, 14] was 48%, the “Inhibition value, I (%)” value ([3]; C 12.60 μg/mL, age of the fungus 12 days) was 35% and the EC50 [3] was 11.2 µg/mL. It also gave an MIC [4] of 3.1 ± 0.2 µM, an MBC [4] of 12.4 µM and an MBC [5] of 49.6 ± 3.9 µM. The MIC [5] was 49.6 ± 3.9 µM, the MBC [6] was 198 µM and the MIC [6] was 49.6 ± 3.9 µM.
In the case of CC[N+](CC)(CC)CC(=O)N/N=C1\C(=O)N(Cc2cc(C(C)(C)C)c(O)c(C(C)(C)C)c2)c2ccc([N+](=O)[O-])cc21 [Compound 3f, 2-(2-(1-(3,5-Di-tert-butyl-4-hydroxybenzyl)-5-nitro-2-oxoindolin-3-ylidene)hydrazinyl)-N,N,N-triethyl-2-oxoethanammonium bromide], the MBC [1] is reported as greater than 500 µM, the MIC [1] is reported as greater than 500 µM and the “Inhibition value, I (%)” value [2, 15] is reported as 13%. The “Inhibition value, I (%)” value [2, 16] was 11%, the “Inhibition value, I (%)” value [2, 17] was 10% and the “Inhibition value, I (%)” value [2, 18] was 9%. For the same compound, the “Inhibition value, I (%)” value [2, 19] was 26%, the “Inhibition value, I (%)” value [2, 20] was 23% and the “Inhibition value, I (%)” value [2, 21] was 21%. For the same compound, the “Inhibition value, I (%)” value [2, 22] was 10%, the “Inhibition value, I (%)” value ([2]; C 25.88 μg/mL, age of the fungus 3 days) was 28% and the “Inhibition value, I (%)” value ([2]; C 25.88 μg/mL, age of the fungus 5 days) was 27%. For the same compound, the “Inhibition value, I (%)” value ([2]; C 25.88 μg/mL, age of the fungus 7 days) was 32%, the “Inhibition value, I (%)” value ([2]; C 25.88 μg/mL, age of the fungus 9 days) was 12% and the “Inhibition value, I (%)” value ([2]; C 38.82 μg/mL, age of the fungus 3 days) was 29%. For the same compound, the “Inhibition value, I (%)” value ([2]; C 38.82 μg/mL, age of the fungus 5 days) was 28%, the “Inhibition value, I (%)” value ([2]; C 38.82 μg/mL, age of the fungus 7 days) was 34% and the “Inhibition value, I (%)” value ([2]; C 38.82 μg/mL, age of the fungus 9 days) was 18%. For the same compound, the EC50 [2] was 30.8 µg/mL, the “Inhibition value, I (%)” value ([3]; C 1.29 μg/mL, age of the fungus 3 days) was 17% and the “Inhibition value, I (%)” value ([3]; C 1.29 μg/mL, age of the fungus 5 days) was 11%. The “Inhibition value, I (%)” value ([3]; C 1.29 μg/mL, age of the fungus 7 days) was 2%, the “Inhibition value, I (%)” value ([3]; C 1.29 μg/mL, age of the fungus 9 days) was 0% and the “Inhibition value, I (%)” value ([3]; C 1.29 μg/mL, age of the fungus 12 days) was 0%. The “Inhibition value, I (%)” value ([3]; C 3.24 μg/mL, age of the fungus 3 days) was 33%, the “Inhibition value, I (%)” value ([3]; C 3.24 μg/mL, age of the fungus 5 days) was 19% and the “Inhibition value, I (%)” value ([3]; C 3.24 μg/mL, age of the fungus 7 days) was 18%. For the same compound, the “Inhibition value, I (%)” value ([3]; C 3.24 μg/mL, age of the fungus 9 days) was 1%, the “Inhibition value, I (%)” value ([3]; C 3.24 μg/mL, age of the fungus 12 days) was 0% and the “Inhibition value, I (%)” value [3, 15] was 35%. The “Inhibition value, I (%)” value [3, 16] was 23%, the “Inhibition value, I (%)” value [3, 17] was 20% and the “Inhibition value, I (%)” value [3, 18] was 8%. For the same compound, the “Inhibition value, I (%)” value ([3]; C 6.47 μg/mL, age of the fungus 12 days) was 1%, the “Inhibition value, I (%)” value ([3]; C 9.71 μg/mL, age of the fungus 3 days) was 41% and the “Inhibition value, I (%)” value ([3]; C 9.71 μg/mL, age of the fungus 5 days) was 36%. The “Inhibition value, I (%)” value ([3]; C 9.71 μg/mL, age of the fungus 7 days) was 32%, the “Inhibition value, I (%)” value ([3]; C 9.71 μg/mL, age of the fungus 9 days) was 20% and the “Inhibition value, I (%)” value ([3]; C 9.71 μg/mL, age of the fungus 12 days) was 16%. The “Inhibition value, I (%)” value [3, 19] was 59%, the “Inhibition value, I (%)” value [3, 20] was 55% and the “Inhibition value, I (%)” value [3, 21] was 53%. The “Inhibition value, I (%)” value [3, 22] was 48%, the “Inhibition value, I (%)” value ([3]; C 12.94 μg/mL, age of the fungus 12 days) was 30% and the EC50 [3] was 8.99 µg/mL. It also gave an MIC [4] of 48.3 ± 3.9 µM, an MBC [4] of 96.7 µM and an MBC [5] greater than 500 µM. The MIC [5] was greater than 500 µM, the MBC [6] was greater than 500 µM and the MIC [6] was 397 ± 31.7 µM.
